Measured values reported in ChEMBL document CHEMBL3867484, “3D-QSAR studies of 3-(3,4-dihydroisoquinolin-2(1H)-ylsulfonyl)benzoic acids as AKR1C3 inhibitors: Highlight the importance of molecular docking in conformation generation” (Bioorg Med Chem Lett, 2016).

Target: T1, Aldo-keto reductase family 1 member C3 (Homo sapiens, UniProt P42330)
T1 sequence (P42330 whole entry): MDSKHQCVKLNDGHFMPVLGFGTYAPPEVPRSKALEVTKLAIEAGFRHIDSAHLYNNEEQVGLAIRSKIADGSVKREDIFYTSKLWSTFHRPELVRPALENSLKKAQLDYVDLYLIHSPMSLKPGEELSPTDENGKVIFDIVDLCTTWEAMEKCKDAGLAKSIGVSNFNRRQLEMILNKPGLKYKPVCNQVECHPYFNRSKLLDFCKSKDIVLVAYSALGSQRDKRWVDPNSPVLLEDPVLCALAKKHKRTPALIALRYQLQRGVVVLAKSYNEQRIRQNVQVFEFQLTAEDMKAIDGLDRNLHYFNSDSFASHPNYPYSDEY
Test: Inhibition of human recombinant His-tagged AKR1C3 expressed in Escherichia coli BL21 (DE3) cells using 8-Acetyl-2,3,5,6-tetrahydro-1H,4H-11-oxa-3a-aza-benzo[de]anthracen-10-one as substrate after 1 hr in presence of NADPH by fluorescence assay
Settings: read-out: IC50

Question: How did the IC50 turn out when O=C(O)c1cccc(S(=O)(=O)C2CC=CCC2)c1 (stereo not drawn) was run?
Answer: The IC50 was 390 nM.

Question: O=C(NN1CCOCC1)c1cccc(S(=O)(=O)N2CCc3ccccc3C2)c1 was tested. Which IC50 did it give?
Answer: Its IC50 is 78 nM.

Question: Which IC50 does the source give for O=C(O)c1cccc(S(=O)(=O)N2CCc3ccc(C#Cc4ccc(C(F)(F)F)cc4)cc3C2)c1 here?
Answer: Its IC50 is 1310 nM.

Question: O=C(O)c1cccc(S(=O)(=O)C2CCc3sccc3C2)c1 (stereo not drawn) was tested. Which IC50 did it give?
Answer: The IC50 was 25 nM.

Question: For CN1CC(c2ccc(S(=O)(=O)N3CCc4ccccc4C3)cc2)CC1=O (stereo not drawn), which IC50 is on record?
Answer: The IC50 was 42 nM.

Question: For O=C(NN1CCSCC1)c1cccc(S(=O)(=O)N2CCc3ccccc3C2)c1, which IC50 is on record?
Answer: The IC50 was 450 nM.

Same assay, conditions: read-out: pIC50 (converted)

Question: For O=C(O)[C@@H]1CCCN(S(=O)(=O)c2ccc3ccccc3c2)C1, which IC50 is on record?
Answer: The IC50 was 31.6 nM.

Question: O=C(O)c1cccc(S(=O)(=O)N2CCc3cc(Br)ccc3C2)c1 was tested. Which IC50 did it give?
Answer: Its IC50 is 6.03 nM.
